According to article PMC5696599, “Confirming a Role for α9nAChRs and SK Potassium Channels in Type II Hair Cells of the Turtle Posterior Crista” (Frontiers in Cellular Neuroscience, 2017):

Target: T1, α9*nAChR (alpha9-containing nicotinic ACh receptor) (Trachemys scripta, UniProt Q3L0X1)
T1 construct: gene CHRNA9; native receptor in type II hair cells, intact split-epithelial posterior crista; read-out through coupled SK potassium current
Assay: whole-cell patch clamp of type II hair cells, peak ACh-sensitive outward current, Hill fit
Assay type: cell-based
Details: agonist; coupled SK current read-out at −17 mV; intact epithelium with acetylcholinesterase and diffusion barriers; pH 7.6; 21–25°C

T1 sequence (Q3L0X1 28-490): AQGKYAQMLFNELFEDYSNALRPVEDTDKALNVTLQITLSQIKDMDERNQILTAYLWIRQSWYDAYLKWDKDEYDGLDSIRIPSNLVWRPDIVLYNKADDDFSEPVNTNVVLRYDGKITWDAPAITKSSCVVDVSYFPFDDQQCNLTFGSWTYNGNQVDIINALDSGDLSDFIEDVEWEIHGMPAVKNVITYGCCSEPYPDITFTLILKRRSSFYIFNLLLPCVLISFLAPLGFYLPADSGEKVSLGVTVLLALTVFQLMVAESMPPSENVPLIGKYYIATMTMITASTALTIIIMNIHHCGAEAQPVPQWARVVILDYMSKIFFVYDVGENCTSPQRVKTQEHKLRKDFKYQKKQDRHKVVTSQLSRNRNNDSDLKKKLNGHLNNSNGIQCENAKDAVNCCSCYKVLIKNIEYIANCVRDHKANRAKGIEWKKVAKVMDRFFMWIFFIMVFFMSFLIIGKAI
T1 sequence (UPI001552A461 25-505 partner): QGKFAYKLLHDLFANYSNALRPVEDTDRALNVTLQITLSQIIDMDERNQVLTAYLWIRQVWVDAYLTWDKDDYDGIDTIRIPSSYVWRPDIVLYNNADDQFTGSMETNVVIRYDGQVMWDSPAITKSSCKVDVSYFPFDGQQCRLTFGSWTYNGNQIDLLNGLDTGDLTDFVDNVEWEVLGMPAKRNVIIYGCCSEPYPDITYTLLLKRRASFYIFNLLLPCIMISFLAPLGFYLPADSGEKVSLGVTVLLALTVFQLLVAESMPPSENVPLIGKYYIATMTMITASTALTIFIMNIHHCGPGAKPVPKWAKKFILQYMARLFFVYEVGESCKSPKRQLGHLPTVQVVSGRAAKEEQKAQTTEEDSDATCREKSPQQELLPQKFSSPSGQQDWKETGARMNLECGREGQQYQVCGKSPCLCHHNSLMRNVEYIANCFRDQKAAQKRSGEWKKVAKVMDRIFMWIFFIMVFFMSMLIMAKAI

## CC(=O)OCC[N+](C)(C)C [acetylcholine]
  EC50: 76 µM
